Blank lines part the entries; values can stand above or below the compound they belong to.
Legend:
Cytoglobin (Cygb) [1] = target: T1, Cytoglobin (Cygb) (Homo sapiens, UniProt Q8WWM9); format: biochemical; conditions: cygb:lipid liposomes
[2] = target: Cytoglobin (Cygb Δ1-15Δ174-190) (Homo sapiens, UniProt Q8WWM9, Δ1-15Δ174-190); test: differential absorbance spectroscopy titration, […] fit; format: binding
[3] = target: Cytoglobin (Cygb), wild type (Homo sapiens, UniProt Q8WWM9); test: as above; format: binding
Cytoglobin (Cygb), wild type, sequence (Q8WWM9 whole entry): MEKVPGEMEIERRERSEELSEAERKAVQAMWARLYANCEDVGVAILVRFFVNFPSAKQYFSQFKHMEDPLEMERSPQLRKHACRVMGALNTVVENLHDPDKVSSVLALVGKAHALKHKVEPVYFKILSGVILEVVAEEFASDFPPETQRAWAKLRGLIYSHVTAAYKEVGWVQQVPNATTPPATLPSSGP

Cytoglobin (Cygb) [4] = target: T1, Cytoglobin (Cygb); test: LC-MS/MS of lipid oxidation products by Cygb/H2O2; format: biochemical

T1 sequence (Q8WWM9 whole entry): as above
Cytoglobin (Cygb Δ1-15Δ174-190), sequence (Q8WWM9 16-173, stated change not applied): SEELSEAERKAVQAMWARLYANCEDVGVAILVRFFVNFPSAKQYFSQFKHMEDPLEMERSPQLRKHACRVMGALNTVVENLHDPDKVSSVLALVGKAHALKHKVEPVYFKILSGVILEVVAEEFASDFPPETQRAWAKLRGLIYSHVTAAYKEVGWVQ

activation of peroxidase activity, Amplex Red oxidation, 1:25 Cygb:lipid liposom (Cytoglobin (Cygb) [1]): 1.6 fold increase in rate
SMILES: CCCCCCCC/C=C\CCCCCCCC(=O)OC[C@H](COP(=O)(O)O)OC(=O)CCCCCCC/C=C\CCCCCCCC [DOPA, 1,2-dioleoyl-sn-glycero-3-phosphate]

SMILES: CCCCCCCC/C=C\CCCCCCCC(=O)O [OA, oleic acid]
Kd [2]: 3 ± 1.8 µM
Kd [3]: 2.3 ± 1 µM

SMILES: CCCCC/C=C\C/C=C\C/C=C\C/C=C\CCCC(=O)O[C@H](COC(=O)CCCCCCCCCCCCCCCCC)COP(=O)(O)O [SAPA, 1-stearoyl-2-arachidonoyl-sn-glycero-3-phosphate]
LC-MS/MS of lipid oxidation products by Cygb/H2O2 (Cytoglobin (Cygb) [4]): 5.6 ± 0.1 picomoles of oxidation products

From paper PMC4821708 (Biochimica et biophysica acta, 2016)
